According to patent US11413337B2, “Peptide conjugated particles for the treatment of inflammation” (Northwestern University, priority 2012, dated 2022):
Where no end group is shown, it is not given here.

Experiments:
Th1 and Th17 responses = assay: induction of antigen-specific Th1 and Th17 responses, draining lymph node cells; assay type: in vivo, mouse; settings: BALB/c mice, iv Day −7, measured Day 10
Description: To determine whether administration of antigen-coupled particles inhibit induction of T-helper cells, either MOG35-55-PLG or OVA323-339-PLG particles were administered intravenously to BALB/c mice at Day −7. On Day 0, OVA323-339-PLG particles and Complete Freund's Adjuvant (CFA) were administered subcutaneously to the mice. The animals were re-stimulated with either MOG35-55-PLG or OVA323-339-PLG particles on Day 10 and the draining lymph node cells were isolated. The CPM and levels of IL-17, GM-CSF, IFN-γ, IL-10, and IL-4 were measured at Day 10.

[1] = tested on: Relapsing Experimental Autoimmune Encephalitis (R-EAE); assay: prophylactic tolerance in PLP139-151/CFA-induced R-EAE, particles given day −7; assay type: in vivo, mouse; settings: for prevention of disease induction: treated day −7 relative to immunization; for clinical score: treated day −7
cervical spinal cord = assay: spinal cord histology and in vivo imaging in R-EAE; set-up: species or system mouse; settings: for staining for CD45, CD4, and CD11b: spinal cord
Description: An additional therapeutic tolerance strategy was performed by delivering PLP139-151-PLG or OVA323-339 PLG to mice. […] Mice were treated with PLP-PLG or OVA323-339-PLG and the tissue was retrieved at day 40. The cervical spinal cord was isolated and sectioned to investigate the immune response within the CNS, which underlies the pathology of R-EAE and multiple sclerosis.
The clinical scores and percent incidence of EAE were determined (FIG. 10B) and the spinal cords observed via in vivo imaging (FIGS. 10A and 11). […] The bar graphs give the numerical numbers to the signal strength shown in the brain and SC scans.

mediastinal lymph nodes = assay: OVA-specific in vitro recall responses from mediastinal lymph nodes; assay type: cell-based, mouse
From the text: Moreover treatment with OVA-PLG decreases the release of cytokines after restimulation with OVA.

CD45.1 donor cells = assay: engraftment of male CD45.1 bone marrow cells in female CD45.2 mice; assay type: in vivo, mouse
From the text: Female CD45.2 mice were tolerized with either OVA-PLG or the control peptide Dby-PLG (the major H-Y antigen expressed by Male C57BL/6 mice) on day −7. On day −1, the mice were irradiated with 200 rads and were then transplanted with 1×10^6, 5×10^6, or 1×10^7 bone marrow cells from male CD45.1 mice on day 0. The recipient mice were then tolerized with either OVA-PLG, Dby-SP, or Dby-PLG on day 1 and the blood harvested for FACS analysis of chimerism.

[2] = tested on: allergic airway inflammation; assay: prophylactic allergic airway inflammation, OVA/Alum; assay type: in vivo, mouse
Description: To test the prophylactic effect of OVA encapsulated in PLG particles on airway inflammation, mice were treated intravenously with OVA-PLG at day −7. On day 0, the mice received intraperitoneal injections of OVA/Alum at a dose of 10 μg/mouse. On day 7, the mice were again treated intravenously with OVA-PLG and received another 10 μg/mouse ip injection of OVA/Alum on day 14. Between days 28 and 30, the mice were treated three times with aerosolized OVA.

[3] = tested on: allergic airway inflammation; assay: therapeutic allergic airway inflammation, OVA/Alum; assay type: in vivo, mouse
Description: To test the therapeutic effect of OVA encapsulated in PLG particles on airway inflammation, mice were treated intraperitoneally with OVA/Alum at a dose of 10 μg/mouse on day 0 and day 14. The mice were intravenously administered with OVA-PLG on days 28, and 42. Between days 56-58, the mice were treated three times with aerosolized OVA.
The animals were treated as described above except that on days 28 and 42, the mice were treated with either OVA encapsulated in PLG particles, or OVA coupled to PLG particles.

[4] = tested on: Relapsing Experimental Autoimmune Encephalitis; assay: treatment of active R-EAE at day 10, route of administration; assay type: in vivo, mouse
Description: Experiments were conducted during development of embodiments of the present invention to investigate the ability of the PLG-PLP139-151 particles to treat disease rather than prevent disease, and to determine whether the route of administration affected the development of disease. Mice were immunized at day 0 with PLP139-151 and an adjuvant. Mice normally have maximal clinical scores at day 12-14. In this model, the mice were treated at day 10 with the PLG-PLP139-151 particles or with control PLG-OVA323-339 particles either via intravenous (iv) administration, intraperitoneal (ip) administration, subcutaneous (sc) administration, or orally. […] This is in contrast to animals treated with PLP139-151 polystyrene particles, whereby >70% of animals where observed to die from anaphylaxis.

adoptive EAE = assay: adoptive transfer EAE treated with antigen-coupled PLG particles; assay type: in vivo, mouse; settings: for mean clinical score: treated at day 2
Description: Experiments were conducted during development of embodiments of the present invention to investigate a second model of active disease termed adoptive transfer. Rather than immunizing the animals with the peptide, the lymphocytes from the spleen of mice with active disease were transferred to a recipient, who would subsequently develop disease. Experiments were conducted during development of embodiments of the present invention to characterize the ability of the PLG nanoparticles to deactivate the adoptively transferred activated effector cells.
Therapeutic tolerance induced by PLP139-151-PLG particles was compared in active and adoptive EAE. Adoptive EAE was induced in six to eight-week old female SJL/J mice by adoptive transfer of 2.5×10^6 PLP139-151-activated blasts. Mice were injected iv with PLP139-151 (squares) or OVA323-339 (circles) peptide coupled to 500 nm PLG nanoparticles 2 days (FIG. 14A) or 14 days (FIG. 14C) following disease induction. Clinical disease scores were compared to those following treatment with antigen-coupled splenocytes (FIG. 14A). Brain and spinal cord were collected from PLP139-151- or OVA323-339-tolerized mice for histological analysis on day 42. Sections from mice from panel A were stained for PLP protein and CD45 (FIG. 14B). Spinal cord sections from mice from panel C were stained with Luxol Fast Blue (FIG. 14D). Areas of demyelination and cellular infiltration are indicated by arrows.
SJL/J mice were injected i.v. with 500 nm PLG nanoparticles coupled with PLP139-151 (squares) or OVA323-339 (circles) 2 days following EAE induction by adoptive transfer. At the peak of disease (day 14) brains and spinal cords were removed and the number of lymphocytes (FIG. 16B), APCs (FIG. 16C), microglia (FIG. 16D), peripheral dendritic cells (FIG. 16E), myeloid dendritic cells (FIG. 16F) and macrophages (FIG. 16G) were enumerated by flow cytometry. The gating strategy for these populations is depicted in (FIG. 16A). CNS cell preparations were stimulated with PMA and ionomycin for 5 h prior to intracellular staining for IL-17A and IFN-γ (FIG. 16H).

SJL/J mice with EAE = assay: iv injection during EAE remission (day 21), anaphylaxis; assay type: in vivo, mouse; settings: administration during remission, d21
Description: EAE was induced in six to eight week old female SJL/J mice by subcutaneous injection of PLP139-151 in CFA, and development of clinical disease was monitored and recorded (FIG. 5B). On d21 relative to disease induction, mice were given iv injections of soluble PLP139-151 (clear squares), soluble OVA323-339 (clear circles), or the same peptides coupled to PLG nanoparticles (solids). Temperature of animals was monitored and recorded every 10 minutes for 1 hour following injection (FIG. 5A).

[5] = tested on: OVA/Alum pre-sensitized mice; assay: anaphylaxis-induced temperature drop in OVA/Alum pre-sensitized animals; assay type: in vivo, mouse; settings: iv on day 28; within 1 hour of delivering
Description: Due to the presence of active disease, anaphylaxis to the antigens is a concern, which could result in immediate mortality, and has been described with polystyrene bound particles. Anaphylaxis is associated with a significant drop in body temperature. To test whether intravenous administration of OVA-PLG induces an anaphylaxis-induced temperature drop in pre-sensitized animals, mice were immunized at day 0 with 10 μg OVA/Alum via intraperitoneal injection. On day 14, the mice were again immunized with 10 μg OVA/Alum via intraperitoneal injection, and then tolerized with OVA-PLG administered intravenously on day 21. On day 28, the mice were then tolerized with either OVA-PLG particles or OVA via intravenous administration.

OVA323-339-PLG: control peptide OVA323-339 coupled to PLG particles (KISQAVHAAHAEINEAG; also: coupled to PLG particles; UniProt P01012 323-339, looked up, fragment)
Th1 and Th17 responses (Th1 and Th17 responses): inhibited the Th1 and Th17 responses | prevention of disease induction [1]: did not prevent disease induction | staining for CD45, CD4, and CD11b (cervical spinal cord; day 40): positive staining

OVA-PLG: OVA with PLG particles: coupled in Example 3, encapsulated in Examples 12 and 13, OVA323 peptide control in Example 16
lymph node proliferation (mediastinal lymph nodes; after restimulation with 25 μg OVA): decreased | levels of IL-4, IL-5, IL-13, and IL-10 (mediastinal lymph nodes; after restimulation with OVA): decreased | engraftment, one mouse (CD45.1 donor cells; Day −7, Day +1 group, FIG. 28): 12% | engraftment (percent of donor CD45.1 cells), individual mice (CD45.1 donor cells; tolerized day 1, FIG. 27): ~10% | eosinophils in the lung [2]: reduced | levels of serum OVA IgE [2]: reduced | secretion of IL-4, IL-5, IL-13 and IL-10 ([2]; iv day −7 and day 7): decreased | eosinophils in the lung [3]: reduced | levels of serum OVA IgE [3]: reduced | secretion of IL-4, IL-5, IL-13 and IL-10 ([3]; iv days 28 and 42): decreased

PLP139-151 polystyrene particles: PLP139-151 bound to polystyrene particles (CHCLGKWLGHPDK; cysteine pairing not given here; also: bound to polystyrene particles; UniProt P60202 139-151, looked up, fragment) [reference compound]
animals observed to die from anaphylaxis ([4]; mouse, in vivo): > 70%

PLP139-151-PLG: immunodominant proteolipid protein PLP139-151 epitope coupled to 500 nm PLG nanoparticles (CHCLGKWLGHPDK; cysteine pairing not given here; also: coupled to 500 nm PLG nanoparticles; UniProt P60202 139-151, looked up, fragment)
down-regulating induction of R-EAE, by type of particle ([1]; day −7, FIGS. 3A and 3B): more effective in down-regulating induction of R-EAE | delayed-type hypersensitivity (DTH) responses ([1]; to immunizing PLP139-151 epitope): lack of delayed-type hypersensitivity (DTH) responses | clinical score ([1]; all time points except days 20 to 30): 0 | clinical score ([1]; between days 20 and 30): under 1 | prevention of disease induction [1]: specifically prevented EAE development | disease (mean clinical score) (adoptive EAE; adoptive EAE, iv 2 days following disease induction (FIG. 15B)): reduced disease | tolerance induction in adoptive EAE (adoptive EAE; iv 2 or 14 days following disease induction): tolerance is induced | infiltration of central nervous system immune cells (adoptive EAE; iv day 2, peak of disease (day 14), flow cytometry): drastically reduced | mean clinical score (adoptive EAE; all but two time points through day 40): 0 | mean clinical score (adoptive EAE; the other two time points): 0.25 | immune cell infiltration within the spinal cord (cervical spinal cord; day 40): reduction in immune cell infiltration | cervical spinal cord inflammation and demyelination (cervical spinal cord; histological analysis, tissue retrieved at day 40): inhibits cervical spinal cord inflammation and demyelination | blood brain barrier (BBB) disruption and macrophage activation in the spinal cord (cervical spinal cord; in vivo imaging, Angiosense and prosense): inhibits blood brain barrier (BBB) disruption and macrophage activation | staining for CD45, CD4, and CD11b (cervical spinal cord; day 40): minimal staining | anaphylaxis-associated mortality (SJL/J mice with EAE): does not result in any anaphylaxis-associated mortality | disease (mean clinical score) ([4]; active EAE, iv 10 days following disease induction (FIG. 15A)): reduced disease | development of disease ([4]; administered intravenously): did not develop disease | mean clinical scores ([4]; administered intravenously, at most time points): 0 | efficiency of tolerance by route of administration ([4]; iv, ip, sc or oral, FIG. 7): most efficient when the PLG-PLP139-151 particles are administered either intravenously or intraperitoneally

B1: OVA-PLG: OVA with PLG particles: coupled in Example 3, encapsulated in Examples 12 and 13, OVA323 peptide control in Example 16 (conjugate, UniProt P01012 2-386, looked up)
Ovalbumin: GSIGAASMEFCFDVFKELKVHHANENIFYCPIAIMSALAMVYLGAKDSTRTQINKVVRFDKLPGFGDSIEAQCGTSVNVHSSLRDILNQITKPNDVYSFSLASRLYAEERYPILPEYLQCVKELYRGGLEPINFQTAADQARELINSWVESQTNGIIRNVLQPSSVDSQTAMVLVNAIVFKGLWEKAFKDEDTQAMPFRVTEQESKPVQMMYQIGLFRVASMASEKMKILELPFASGTMSMLVLLPDEVSGLEQLESIINFEKLTEWTSSNVMEERKIKVYLPRMKMEEKYNLTSVLMAMGITDVFSSSANLSGISSAESLKISQAVHAAHAEINEAGREVVGSAEAGVDAASVSEEFRADHPFLFCIKHIATNAVLFFGRCVSP
modifications: coupled to or encapsulated in PLG particles
body temperature [5]: No decrease in body temperature

B2: soluble OVA: soluble ovalbumin given intravenously (protein, UniProt P01012 2-386, looked up)
Ovalbumin: B1 Ovalbumin
body temperature [5]: decrease in temperature
